The values below come from US7205403B2, “8-Heteroaryl xanthine adenosine A2B receptor antagonists” (King Pharmaceuticals Research and Development, Inc., priority 2002, dated 2007).

Structures are written as SMILES.

Assay [1] addresses T1, human A3 adenosine receptor (Homo sapiens, UniProt P0DMS8).
T1 construct: expressed in transfected cells; host or cells: CHO cells (membranes)
T1 sequence (P0DMS8 1-318): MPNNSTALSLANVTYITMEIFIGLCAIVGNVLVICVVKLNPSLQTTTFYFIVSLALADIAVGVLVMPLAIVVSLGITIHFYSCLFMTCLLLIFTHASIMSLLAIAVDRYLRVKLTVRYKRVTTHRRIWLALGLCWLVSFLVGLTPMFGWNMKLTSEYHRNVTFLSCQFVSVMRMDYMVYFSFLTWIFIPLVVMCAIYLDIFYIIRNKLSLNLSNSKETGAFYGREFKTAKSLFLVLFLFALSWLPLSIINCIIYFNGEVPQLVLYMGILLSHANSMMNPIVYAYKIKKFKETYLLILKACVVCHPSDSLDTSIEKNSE
Kind of assay: [3H]MRE3008F20 binding to human A3 receptors expressed in CHO cells. As to the method:
(§1) The cells were grown adherently and maintained in Dulbecco's modified Eagle's medium with nutrient mixture F12 without nucleosides at 37° C. in 5% CO2/95% air. The cells were washed with phosphate-buffered saline and scraped off flasks in ice cold hypotonic buffer ([…] Tris HCl, 2 mM EDTA, pH 7.4). The cell suspension was homogenized with a Polytron and the homogenate was centrifuged for 30 minutes at 48,000 g. The resultant membrane pellet was re-suspended in 50 mM Tris HCl buffer at pH 7.4 for A1 adenosine receptors; in 50 mM Tris HCl 10 mM MgCl, at pH 7.4 for A2A adenosine receptors; in 50 mM Tris HCl, 10 mM MgCl2, 1 mM EDTA, at pH 7.4 for A3 adenosine receptors and were utilized for binding assays.
Binding of [^3H]-MRE3008-F20 to CHO cells transfected with the human recombinant A3 adenosine receptors was performed according to Varani et al., 2000. Competition experiments were carried out in duplicate in a final volume of 250 μl in test tubes containing 1 nM [^3H]-MRE3008-F20, 50 mM Tris HCl buffer, […] MgCl2, pH 7.4 and 100 μl of diluted membranes (50 μg of protein/assay) and at least 6–8 different concentrations of examined ligands for 120 minutes at 4° C.
(§2) The filter bound radioactivity was counted on Top Count (efficiency 57%) with Micro-Scint 20.
(§3) The filter bound radioactivity was counted on a Top Count brand Microplate Scintillation Counter (efficiency 57%) with Micro-Scint 20. […] Inhibitory binding constant. […] Results and Discussion

For assay [2], the target named is T2, human A2B adenosine receptor (Homo sapiens, UniProt P29275).
T2 sequence (P29275 1-332): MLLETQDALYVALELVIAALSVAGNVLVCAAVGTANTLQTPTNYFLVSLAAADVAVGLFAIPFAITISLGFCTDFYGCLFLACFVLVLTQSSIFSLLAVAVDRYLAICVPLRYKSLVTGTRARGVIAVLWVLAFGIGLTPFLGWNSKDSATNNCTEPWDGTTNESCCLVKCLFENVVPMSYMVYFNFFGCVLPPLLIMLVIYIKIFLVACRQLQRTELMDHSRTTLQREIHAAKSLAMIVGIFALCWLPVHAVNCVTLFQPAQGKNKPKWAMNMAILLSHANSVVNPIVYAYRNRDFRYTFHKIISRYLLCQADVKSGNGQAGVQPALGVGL
Kind of assay: [3H]DPCPX binding to human A2B receptors expressed in HEK293 cells. Also on record: host or cells: HEK 293 cells (membranes). To be noted: geometric mean (95% confidence interval); >1000 = no appreciable binding; read-out: Ki, [3H]DPCPX binding to human A2B receptors expressed in HEK293 cells. The protocol: HEK 293 cells transfected with the human recombinant A2B adenosine receptor were obtained from Receptor Biology, Inc. (Beltsville, Md. USA).
Binding of 1 [^3H]-DPCPX to HEK 293 cells transfected with the human recombinant A2B adenosine receptors was performed according to the method described by Varani et al., 2000. In particular, assays were carried out for 60 minutes at 25° C. in 100 μl of […] Tris HCl buffer, […] MgCl2, 1 mM EDTA, 0.1 mM benzamidine pH 7.4, 2 IU/ml adenosine deaminase containing 40 nM [^3H]-DPCPX, diluted membranes (20 μg of protein/assay) and at least 6–8 different concentration of tested compounds.
as §2, §3

In assay [3] the target is T3, human A1 adenosine receptor (Homo sapiens, UniProt P30542).
T3 construct: expressed in transfected cells; host or cells: CHO cells (membranes)
T3 sequence (P30542 1-326): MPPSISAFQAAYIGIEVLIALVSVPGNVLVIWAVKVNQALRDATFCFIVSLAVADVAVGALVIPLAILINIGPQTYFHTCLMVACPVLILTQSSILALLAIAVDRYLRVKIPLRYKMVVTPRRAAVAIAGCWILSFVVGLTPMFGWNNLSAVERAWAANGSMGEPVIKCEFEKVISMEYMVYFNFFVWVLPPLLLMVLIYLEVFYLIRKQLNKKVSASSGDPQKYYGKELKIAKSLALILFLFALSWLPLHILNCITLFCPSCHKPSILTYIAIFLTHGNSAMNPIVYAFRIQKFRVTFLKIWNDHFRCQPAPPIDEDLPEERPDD
In words: [3H]DPCPX binding to human A1 receptors expressed in CHO cells. The following applies: geometric mean (95% confidence interval); >1000 = no appreciable binding. The protocol:
as §1
Displacement experiments were performed for 120 minutes at 25° C. in 200 μl of buffer containing 1 nM ^3H]-DPCPX 20 μl of diluted membranes (50 μg of protein/assay) and at least 6 to 8 different concentrations of examined compounds.
as §2, §3

Assay [4] concerns the target T4, human A2A adenosine receptor (Homo sapiens, UniProt P29274).
T4 construct: expressed in transfected cells; host or cells: CHO cells (membranes)
In words: [3H]ZM241385 binding to human A2A receptors expressed in CHO cells. The following applies: for Ki: read-out: Ki, [3H]ZM241385 binding to human A2A receptors expressed in CHO cells. The protocol: as §1, §2, §3

Where [5] appears, read: geometric mean (95% confidence interval), >1000 = no appreciable binding.

T4 sequence (P29274 whole entry): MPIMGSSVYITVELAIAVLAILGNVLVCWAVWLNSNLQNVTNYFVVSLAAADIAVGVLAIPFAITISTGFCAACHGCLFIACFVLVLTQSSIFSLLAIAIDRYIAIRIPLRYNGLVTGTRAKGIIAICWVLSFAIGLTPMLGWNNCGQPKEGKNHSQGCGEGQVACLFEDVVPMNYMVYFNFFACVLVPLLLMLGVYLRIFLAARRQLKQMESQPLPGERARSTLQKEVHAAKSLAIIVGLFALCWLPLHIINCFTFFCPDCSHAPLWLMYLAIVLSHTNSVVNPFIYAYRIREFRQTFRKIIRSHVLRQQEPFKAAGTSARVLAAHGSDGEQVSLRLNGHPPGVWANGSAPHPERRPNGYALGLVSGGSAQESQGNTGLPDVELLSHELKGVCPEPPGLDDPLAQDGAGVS

Turning to `CCCn1c(=O)c2[nH]c(-c3cc(NC(=O)Cc4ccc(C(F)(F)F)cc4)nn3C)nc2n(CCC)c1=O` [AS32, N-[5-(2,6-dioxo-1,3-dipropyl-2,3,6,9-tetrahydro-1H-purin-8-yl)-1-methyl-1H-pyrazol-3-yl]-2-[4-(trifluoromethyl)phenyl]acetamide], the Ki (as a rule, a measure of affinity in units of concentration, obtained from inhibition or displacement) in assay [1] was above 1000 nM; in assay [2], 190 nM; in assay [3], 746 nM; in assay [4], above 1000 nM.

With `CCCn1c(=O)c2[nH]c(-c3cc(OCC(=O)Nc4ccc(C(C)=O)cc4)nn3C)nc2n(CCC)c1=O` [AS69], the “Ki, [3H]MRE3008F20 binding to human A3 receptors expressed in CHO cells” value in assay [1] (setting [5]) is reported as “without significant binding”. Also, the Ki in assay [2] turned out to be 86 nM. Also, the “Ki, [3H]DPCPX binding to human A1 receptors expressed in CHO cells” value in assay [3] is recorded as “without significant binding”. The “Ki, [3H]ZM241385 binding to human A2A receptors expressed in CHO cells” value in assay [4] (setting [5]) is reported as “without significant binding”.

Turning to `CCCn1c(=O)c2[nH]c(-c3cc(OCC(=O)Nc4ccc(C)c(C)c4)nn3C)nc2n(CCC)c1=O` [AS99, 1,3-di-n-propyl-8-{5-[(3,4-dimethyl-phenylcarbamoyl)-methoxy]-2-methyl-2H-pyrazole-3-yl}-xanthine], the Ki is above 1000 nM in assay [1], 10 nM in assay [2], 700 nM in assay [3] and above 1000 nM in assay [4].

Regarding `CCCn1c(=O)c2[nH]c(-c3cc(NC(=O)Cc4cccc(Cl)c4)nn3C)nc2n(CCC)c1=O` [AS24, N-[5-(2,6-dioxo-1,3-dipropyl-2,3,6,9-tetrahydro-1H-purin-8-yl)-1-methyl-1H-pyrazol-3-yl]-2-(3-chlorophenyl)acetamide], the Ki in assay [1] is above 1000 nM; in assay [2], 160 nM; in assay [3], 4480 nM; in assay [4], above 1000 nM.

As for `CCCn1c(=O)c2[nH]c(-c3cc(OCC(=O)Nc4ccc(C)cc4)nn3C)nc2n(CCC)c1=O` [AS92], the inhibition constant Ki in assay [1] is above 1000 nM; in assay [2], 19 nM; in assay [3] it was 79 nM; in assay [4] it was above 1000 nM.

On to `CCCn1c(=O)c2[nH]c(-c3cc(NC(=O)Cc4ccc(OCc5ccc([N+](=O)[O-])cc5)cc4)nn3C)nc2n(CCC)c1=O` [AS31, N-[5-(2,6-dioxo-1,3-dipropyl-2,3,6,9-tetrahydro-1H-purin-8-yl)-1-methyl-1H-pyrazol-3-yl]-2-(4-{4-nitro-benzyloxy}phenyl)acetamide], for which the Ki in assay [1] was above 1000 nM; in assay [2], 111 nM; in assay [3] it was 163 nM; in assay [4], above 1000 nM.

As to `CCCn1c(=O)c2[nH]c(-c3cc(NC(=O)Cc4ccc(F)c(F)c4)nn3C)nc2n(CCC)c1=O` [AS43, N-[5-(2,6-dioxo-1,3-dipropyl-2,3,6,9-tetrahydro-1H-purin-8-yl)-1-methyl-1H-pyrazol-3-yl]-2-(3,4-difluorophenyl)acetamide], the inhibition constant Ki in assay [1] was above 1000 nM; in assay [2] it was 130 nM; in assay [3] it was 1900 nM; in assay [4], above 1000 nM.

For the compound `CCCn1c(=O)c2[nH]c(-c3cc(OCC(=O)Nc4ccc(F)cc4)n(C)n3)nc2n(CCC)c1=O` [AS61, N-(4-fluorophenyl)-2-{[3-(2,6-dioxo-1,3-dipropyl-2,3,6,9-tetrahydro-1H-purin-8-yl)-1-methyl-1H-pyrazol-5-yl]oxy}acetamide], the Ki in assay [1] is above 1000 nM; in assay [2] it was 185 nM; in assay [3], 181 nM; in assay [4] it was above 1000 nM.

On to `CCCn1c(=O)c2[nH]c(-c3cc(OCC(=O)Nc4ccc(Cl)c(Cl)c4)nn3C)nc2n(CCC)c1=O` [AS100, 1,3-di-n-propyl-8-{5-[(3,4-chloro-phenylcarbamoyl)-methoxy]-2-methyl-2H-pyrazole-3-yl}-xanthine], for which the inhibition constant Ki was above 1000 nM in assay [1], 16 nM in assay [2], 300 nM in assay [3] and above 1000 nM in assay [4].

Turning to `CCCn1c(=O)c2[nH]c(-c3cc(NC(=O)Cc4cccc(F)c4)nn3C)nc2n(CCC)c1=O` [AS25, N-[5-(2,6-dioxo-1,3-dipropyl-2,3,6,9-tetrahydro-1H-purin-8-yl)-1-methyl-1H-pyrazol-3-yl]-2-(3-fluorophenyl)acetamide], the Ki in assay [1] is above 1000 nM; in assay [2] it was 50 nM; in assay [3] it was 3230 nM; in assay [4] it was above 1000 nM.

On to `CC(C)Cn1c(=O)c2[nH]c(-c3cc(OCC(=O)Nc4ccc(Br)cc4)n(C)n3)nc2n(CC(C)C)c1=O` [AS63, 2-{[3-(1,3-diisobutyl-2,6-dioxo-2,3,6,9-tetrahydro-1H-purin-8-yl)-1-methyl-1H-pyrazol-5-yl]oxy}-N-(4-bromophenyl)acetamide], for which the Ki in assay [1] is above 1000 nM; in assay [2], 66 nM; in assay [3] it was 49 nM; in assay [4], above 1000 nM.

As for `CC(C)Cn1c(=O)c2nc(-c3cc(OCC(=O)Nc4ccc(F)cc4)nn3C)[nH]c2n(CC(C)C)c1=O` [AS66, 2-{[5-(1,3-diisobutyl-2,6-dioxo-2,3,6,9-tetrahydro-1H-purin-8-yl)-1-methyl-1H-pyrazol-3-yl]oxy}-N-(4-fluorophenyl)acetamide], the values for the Ki in assay [2] and in assay [3] were 303 nM and 467 nM, respectively.

Consider `CCCn1c(=O)c2[nH]c(-c3cc(OCC(=O)N4CCN(Cc5ccccc5)CC4)nn3C)nc2n(CCC)c1=O` [AS90], for which the Ki was determined as 85 nM in assay [2] and 810 nM in assay [3].

Consider `CCCn1c(=O)c2[nH]c(-c3cc(N)n(C)n3)nc2n(CCC)c1=O` [AS37, 8-(5-amino-1-methyl-1H-pyrazol-3-yl)-1,3-dipropyl-3,7-dihydro-1H-purine-2,6-dione], for which the inhibition constant Ki worked out at 58 nM in assay [2] and 140 nM in assay [3].

Regarding `CCCn1c(=O)c2[nH]c(-c3cc(OCC(=O)Nc4ccncc4)nn3C)nc2n(CCC)c1=O` [AS89], the figures for the Ki in assay [2] and in assay [3] were 41 nM and 955 nM, respectively.

With `CCCn1c(=O)c2[nH]c(-c3cc(OCC(=O)Nc4ccc(C(C)CC)cc4)nn3C)nc2n(CCC)c1=O` (stereo not drawn) [AS91, 1,3-di-n-propyl-8-{5-[(4-sec-butyl-phenylcarbamoyl)-methoxy]-2-methyl-2H-pyrazole-3-yl}-xanthine], the Ki is 74 nM in assay [2] and 1000 nM in assay [3].

`C=CCn1c(=O)c2[nH]c(-c3cc(OCC(=O)N4CCN(c5ccccc5)CC4)nn3C)nc2n(CC=C)c1=O` [AS96, 1,3-di-allyl-8-{5-[2-oxo-2-(4-phenyl-piperazin-1-yl)-ethoxy]-2-methyl-2H-pyrazole-3-yl}-xanthine]: the results for the inhibition constant Ki in assay [1], in assay [2] and in assay [4] were above 1000 nM, 24 nM and above 1000 nM, respectively.
